Source: paper PMC11009625, “Antibiotic class with potent in vivo activity targeting lipopolysaccharide synthesis in Gram-negative bacteria” (Proceedings of the National Academy of Sciences of the …, 2024)
≈ marks a conversion by molar mass, not a printed value. Read-outs that look alike come from different tables or passages of the source.

Assays:
[1] = tested on: Eco MG1655 ∆tolC (EN243); experiment: MIC, efflux-defective parental strain EN243; assay type: cell-based, E. coli; conditions: Escherichia coli, MG1655, read-out: MIC EN243
Procedure: Minimum inhibitory concentration (MIC) values were determined according to the Clinical Laboratory Standards Institute guidelines. Frequency of resistance was determined by plating ~5 × 10^8 bacterial cells on agar-solidified media plates containing test compound at concentrations corresponding to four times the measured solid-media MIC of the strains. Colonies were counted after 24 h, restreaked onto media containing the same concentration of compound, and the MIC remeasured against the assayed compound. Genomic DNA from isolated clones was sequenced by paired-end sequencing on an Illumina MiSeq device. Complete experimental details available in SI Appendix. […]
Minimum inhibitory concentration (MIC) determination. Broth microdilution and agar dilution
MIC assays were conducted according to CLSI guidelines (M07-2012). Appropriate inoculation
suspension density was assessed using a Sensititre Nephelometer with a Sensititre 0.5
McFarland Standard. […]

[2] = Plasma protein binding (RED device); assay type: in vitro ADME; conditions: plasma (50% plasma, 50% isotonic buffer), pH 7.4; human plasma
Procedure: Thermodynamic solubility was assessed by dissolving 2 to 3 mg of test compound to equilibrium in 100 mM KPO4-buffer, pH 7.4. The metabolic stability assay was performed in the presence of human and mouse liver microsomes by measurement of test compounds disappearance over time (60 min). The plasma protein binding assay, including stability estimation, was performed using the RED devices (Thermo Fisher Scientific) in the presence of human and mouse plasma. All samples from the in vitro ADME studies were quantified by liquid chromatography-triple quadrupole mass spectrometry (LC–MS/MS). The assays were performed as previously described ([36]) and the details are available in SI Appendix. Cytotoxicity was assessed by incubation of test compounds in the presence of HepG2 cells for 72 h as previously described ([37]).
Plasma protein binding and plasma stability in human and animal plasma. Pooled,
anonymized human plasma was provided by Uppsala Academic Hospital and was collected from
two donors (non-smoking) (citric acid). In brief, 0.2 ml of the plasma (50% plasma, 50% isotonic
buffer) test solution (typically 10 μM final compound concentration) was transferred to the
membrane tube in the RED insert (ThermoFisher Scientific). 0.35 ml isotonic phosphate buffer
pH 7.4 was added to the other side of the membrane. The 96-well base plate was then sealed
with an adhesive plastic film (Scotch Pad) to prevent evaporation. The sample was incubated
with rapid rotation (900 rpm) on a Kisker rotational incubator at 37°C for 4 h to achieve
equilibrium. A stability test of the test solution was prepared (to allow detection of drug
degradation), 100 μL of the plasma test solution (in a plastic vial or on a sealed plate) was
incubated at 37°C for 4 h (or as long as the dialysis time). The plasma test solution was frozen
directly after the administration to prevent any degradation. Prior to LC-MS/MS analysis the
plasma and buffer sample were treated with the addition of Methanol (1:3) containing Warfarin
as internal standard to precipitate proteins. The standard curve was created using the plasma
standard. The plate is then sealed, centrifuged and the supernatant is analysed by liquid
chromatography coupled to triple quadrupole mass spectrometry (LC-MS/MS). […]
Liquid chromatography coupled to triple quadrupole mass spectrometry (LC-MS/MS). The test
compounds were optimized on a Waters Acquity UPLC XEVO TQ-S micro system (Waters Corp.)
operating in multiple reaction monitoring (MRM) mode with positive or negative electrospray
ionization. Compounds were optimized by using the QuanOptimize software (Waters Corp.).
For chromatographic separation, a C18 BEH 1.7 µm column was used, with a general gradient of
1% to 90% of mobile phase B over a total running time of 2 min. Mobile phase A consisted of
5% acetonitrile and 0.1% formic acid in purified water, and mobile phase B of 0.1% formic acid
in 100% acetonitrile. The flow rate was set to 0.5 ml/min and 5 µL of the sample was injected.

[3] = tested on: Staphylococcus aureus ATCC 29213; experiment: MIC, S. aureus; assay type: cell-based
Procedure: Minimum inhibitory concentration (MIC) values were determined according to the Clinical Laboratory Standards Institute guidelines. Frequency of resistance was determined by plating ~5 × 10^8 bacterial cells on agar-solidified media plates containing test compound at concentrations corresponding to four times the measured solid-media MIC of the strains. Colonies were counted after 24 h, restreaked onto media containing the same concentration of compound, and the MIC remeasured against the assayed compound. Genomic DNA from isolated clones was sequenced by paired-end sequencing on an Illumina MiSeq device. Complete experimental details available in SI Appendix.
Cytotoxicity. The cytotoxicity assay was performed in HepG2 cells as previously described(10) […]
Minimum inhibitory concentration (MIC) determination. Broth microdilution and agar dilution MIC assays were conducted according to CLSI guidelines (M07-2012). Appropriate inoculation suspension density was assessed using a Sensititre Nephelometer with a Sensititre 0.5 McFarland Standard. Serum MICs were conducted in 50% heat-inactivated pooled human serum (Sigma-Aldrich). Serum was heated to 56 °C for one hour and then filtered using a 0.2 µm […]
Hemolysis. Hemolysis was conducted as previously described (11).
Frequency of Resistance. Frequency of resistance was assessed by spread plating between […] cfu of a freshly-grown culture of the strain of interest on plates containing a concentration of compound corresponding to 4 times the MIC of the strain (as determined by agar-dilution MIC). […] The frequency of resistance was determined by dividing the number of colonies obtained on the selective plates after 24 hours of growth by the calculated total population plated. […]
Whole-genome sequencing and data analysis. […] Whole-genome sequencing data was analyzed using CLC Genomics Workbench Version 11. To determine the genotype of MDR strains from the ENABLE strain collection, de novo assembled contigs were analyzed using ResFinder (12–14) […]

[4] = ATCC29213, read-out: MIC S. aureus ATCC 29213

| SMILES | MIC [1] [µg/mL] | fraction unbound at 4 h, 10 µM [2] | MIC ([3]; ATCC29213, WT, read-out: MIC S. aureus ATCC 29213) [µg/mL] | MIC [3, 4] [µg/mL] |
| --- | --- | --- | --- | --- |
| CC(=O)N1CCc2cc(S(=O)(=O)N3CCN(c4cccc(C(F)(F)F)c4)CC3)ccc21 [AZ1, reference compound] | 0.125 (≈ 0.276 µM) | – | – | – |
| CN(c1ccc(CNCCN)cc1C(=O)Nc1ccc(S(=O)(=O)N2CCN(c3cc(Cl)cc(Cl)c3)CC2)cc1)S(C)(=O)=O [EBL-3025] | – | 0.001 | – | – |
| Cc1cc(C#N)nc(N2CCN(S(=O)(=O)c3ccc(NC(=O)c4ccccc4N(C)S(C)(=O)=O)cc3)CC2)n1 [EBL-3339] | – | 0.0054 | – | – |
| Cc1cc(C#N)nc(N2CCN(S(=O)(=O)c3ccc(NC(=O)c4cc(CNCCCN)ccc4N(C)S(C)(=O)=O)cc3)CC2)n1.Cl.Cl [EBL-3599] | – | 0.02 | > 64 | – |
| Cc1cc(C#N)nc(N2CCN(S(=O)(=O)c3ccc(NC(=O)c4cc(CN5CC(CN)C5)ccc4N(C)S(C)(=O)=O)cc3)CC2)n1 [EBL-3647] | – | 0.025 | – | > 64 |
| CN(c1ccccc1C(=O)Nc1ccc(S(=O)(=O)N2CCCCC2)cc1)S(C)(=O)=O [JEDI-852] | 4 (≈ 8.86 µM) | – | – | – |
| CN(c1ccccc1C(=O)Nc1ccc(S(=O)(=O)N2CCN(c3cccc(C(F)(F)F)c3)CC2)cc1)S(C)(=O)=O [JEDI-1444] | 0.016 (≈ 0.0268 µM) | 0.001 | – | > 64 |
